Tested on: isolated stratum corneum
Assay: Desquamating effect: counting corneocytes released from isolated stratum corneum
Conditions: compound 2% by weight in 0.1% Triton X100 PBS buffer pH 7.4, 37° C., 24 hours; for Average number of corneocytes released, 1st skin sample: control 1; for Average number of corneocytes released, 2nd skin sample: control 4
Method: The test consists in counting the corneocytes released after incubation of batches of isolated stratum corneum in the presence of three test compounds, corresponding to compounds F, G and K of Table 1.
Compounds F, G and K were each dissolved to 2% by weight in a 0.1% Triton X100 PBS buffer at pH 7.4.
Two different samples of stratum corneum isolated by trypsin/heat from plastic surgeries were used. SCI discs 4 mm in diameter were cut out using a punch and placed in the bottom of a 96-well dish. 50 μl of buffer containing the test compound were added to each well. Controls without compound were prepared. The tests were repeated three times. The incubation was performed at 37° C. with stirring for 24 hours. 10 μl were then taken up and placed in a Mallassez cell. The freed corneocytes were counted by microscope.

| SMILES | Average number of corneocytes released, 1st skin sample | Average number of corneocytes released, 2nd skin sample |
| --- | --- | --- |
| CNC(=O)C(Cc1ccccc1)(C(=O)NC)[C@@H]1O[C@H](C)[C@H](O)[C@H](O)[C@H]1O [Compound F, 2-benzyl-N,N′-dimethyl-2-(3,4,5-trihydroxy-6-methyltetrahydropyran-2-yl)malonamide] | 5 | 12 |
| CNC(=O)C(Cc1ccccc1)(C(=O)NC)[C@@H]1OC[C@@H](O)[C@H](O)[C@H]1O [G] | 13 | 12 |
| CNC(=O)C(Cc1ccccc1)(C(=O)NC)[C@@H]1O[C@H](CO)[C@@H](O)[C@H](O)[C@H]1O [K] | 7 | 5 |

From patent publication US7622448B2, “Compositions suitable for topical application to the skin” (L'Oreal, priority 2003, dated 2009)
